Assay results reported in PubChem BioAssay (NCI).
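In this assay, cells in 96-well plates receive the compound at five concentrations for 48 hours. Endpoints are linearly interpolated between the surrounding concentrations. Definition used: TGI = concentration required for complete inhibition of growth.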

What was measured:
Assay in all cases: NCI-60 cell line screen, 48 h
NCI-H460 lung = system: NCI-H460 lung
NCI/ADR-RES ovarian = system: NCI/ADR-RES ovarian
SF-295 CNS = system: SF-295 CNS
HL-60(TB) leukemia = system: HL-60(TB) leukemia
SW-620 colon = system: SW-620 colon
SK-MEL-5 melanoma = system: SK-MEL-5 melanoma
CAKI-1 renal = system: CAKI-1 renal
K-562 leukemia = system: K-562 leukemia
MCF7 breast = system: MCF7 breast
SF-268 CNS = system: SF-268 CNS

| SMILES | TGI (NCI-H460 lung) [µM] | TGI (NCI/ADR-RES ovarian) [µM] | TGI (SF-295 CNS) [µM] | TGI (HL-60(TB) leukemia) [µM] | TGI (SW-620 colon) [µM] | TGI (SK-MEL-5 melanoma) [µM] | TGI (CAKI-1 renal) [µM] | TGI (K-562 leukemia) [µM] | TGI (MCF7 breast) [µM] | TGI (SF-268 CNS) [µM] |
| --- | --- | --- | --- | --- | --- | --- | --- | --- | --- | --- |
| N#Cc1c(-c2ccc(Cl)cc2)cc(-c2ccc(Nc3ccnc4cc(Cl)ccc34)cc2)[nH]c1=O | > 100 | > 100 | > 62.1 | > 100 | > 100 | > 100 | > 100 | > 100 | > 100 | > 100 |
| CSC(=S)Nc1cc(C)cc(C)n1 | > 31.6 | > 31.6 | > 31.6 | > 31.6 | > 31.6 | > 100 | > 31.6 | > 31.6 | > 31.6 | > 31.6 |
| CC(=O)O[C@H]1CC[C@@]2(C)C(=CC[C@@H]3[C@@H]2CC[C@]2(C)C(=N/O)/C(=C\c4ccccc4)C[C@@H]32)C1 | 97.9 | > 72.9 | 67.1 | 49.3 | > 60.9 | 11.4 | > 100 | > 100 | > 100 | > 80.8 |
| O=C(O)CSc1ccccc1C(=O)O | 38.1 | > 100 | > 100 | > 100 | > 100 | > 100 | > 100 | > 100 | > 100 | > 100 |
| COC(=O)[C@@H]1CS(=O)(=O)C(C(C)C)N1C(C)=O (some centres undefined) | > 100 | > 100 | > 100 | 32.1 | > 100 | > 100 | > 100 | > 100 | > 100 | > 100 |
| O=C(/C(=C(/O)c1ccccc1)c1nc2ccccc2sc1=O)c1ccccc1 | 30.5 | 74.4 | 74.9 | 20.7 | > 100 | 54.3 | > 100 | 45 | 75.5 | > 100 |
| O=C(CCN1CCOCC1)/C(=C/c1ccccc1)c1ccccc1 | 23.1 | 17.5 | 25.7 | 4.19 | 6.9 | 21.5 | 16.9 | 4.24 | 18.8 | 19 |
| CN1/C(=C/C=C/C=C/C=C2C(=O)c3ccccc3C2=O)C(C)(C)c2ccccc21 | > 100 | > 100 | > 100 | > 100 | > 100 | 36.1 | > 100 | > 100 | > 100 | > 100 |
| COC(=O)C1CC2(C)C=CC1N(C(=O)OCc1ccccc1)C2 (centres undefined) | > 100 | > 100 | > 100 | 70.7 | > 100 | > 100 | > 100 | > 100 | > 100 | > 100 |
| CCOC(=O)/C(C(N)=O)=C(\O)C(=O)/C(Br)=C(\O)c1ccccc1 | 56.1 | 72.9 | > 100 | 0.248 | 35.2 | 30.5 | 24.6 | 31.2 | 36.9 | 39.5 |
| CCOC(=O)C1CC(C(=O)c2ccccc2)N2c3ccccc3-c3ccccc3C12 (centres undefined) | > 100 | > 100 | > 100 | 29.7 | > 100 | > 100 | > 100 | > 100 | > 100 | > 100 |
| COC(=O)[C@H](Cc1c[nH]c2ccccc12)NP(=O)(OCCC#N)OCC1OC(n2cc(C)c(=O)[nH]c2=O)CC1N=[N+]=[N-] (some centres undefined) | > 100 | > 100 | > 100 | > 100 | > 100 | > 100 | > 100 | > 100 | > 100 | > 100 |
| Cc1cc(-n2nnc(C(=O)O)c2-c2ccccc2)c2ccc(Cl)cc2n1 | > 100 | > 100 | > 100 | > 100 | > 100 | > 100 | > 100 | > 100 | > 100 | > 100 |
| CCc1cccc2c3c([nH]c12)-c1ccccc1NC(=O)C3 | > 100 | > 100 | > 100 | > 100 | > 100 | > 100 | > 100 | > 100 | > 100 | > 100 |
| CCOC(=O)c1ccc(Nc2nc3ccccc3nc2-c2cccs2)cc1 | > 100 | > 100 | > 100 | > 100 | – | > 100 | > 100 | > 100 | > 100 | > 100 |
| CCN1C/C(=C\c2ccc(Cl)cc2)c2nc(N)c(C#N)c(-c3ccc(Cl)cc3)c2C1 | > 100 | > 100 | > 100 | > 100 | > 100 | > 100 | > 100 | > 100 | > 100 | > 100 |
| COc1cc2cc(C(=O)N3CC(COS(C)(=O)=O)c4ccc(NC(=O)OCc5ccccc5)cc43)[nH]c2c(OC)c1OC (centres undefined) | > 100 | > 100 | > 100 | > 100 | > 100 | > 100 | > 100 | > 100 | > 100 | > 100 |
| C=C(C(=O)O[C@H]1C/C(C)=C/CC/C(CO)=C/[C@H]2C(=O)OC(=C)[C@H]12)C(O)CO (some centres undefined) | 31.6 | 48.4 | > 60.8 | 10.4 | 14.4 | 29.1 | 9.1 | 14.8 | 25.6 | 39.6 |
| Cc1ccc(S(=O)(=O)NC(CCC(=O)NNc2ccccc2)C(=O)NNc2ccccc2)cc1 (centres undefined) | 51.6 | > 100 | > 100 | > 100 | > 100 | > 100 | > 100 | > 100 | > 100 | > 100 |
| CC1=NN(c2cccc(Cl)c2)C2(C1=Cc1ccc(O)cc1)C(Cl)C(=O)N2c1nc2ccccc2s1 (centres undefined) | 89.3 | 59.7 | 57 | > 100 | 34.8 | 39.8 | 85.6 | 72.7 | 98.4 | 86 |
